# In PubChem BioAssay (NCI):
#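 Values below derive from 48-hour exposures of cells grown in 96-well plates, with endpoints linearly interpolated between the two concentrations bracketing the appropriate inhibition level. GI50 marks 50% less growth. TGI is the concentration that stops growth completely.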
# Legend:
# Test in all cases: growth of human tumour cells (NCI), 48 h
# OVCAR-8 ovarian = tested on: OVCAR-8 ovarian
# SK-MEL-5 melanoma = tested on: SK-MEL-5 melanoma
# OVCAR-3 ovarian = tested on: OVCAR-3 ovarian
# K-562 leukemia = tested on: K-562 leukemia
# SN12C renal = tested on: SN12C renal
# HL-60(TB) leukemia = tested on: HL-60(TB) leukemia
# ACHN renal = tested on: ACHN renal
# COLO 205 colon = tested on: COLO 205 colon
# HCT-116 colon = tested on: HCT-116 colon
# HS 578T breast = tested on: HS 578T breast
# SK-OV-3 ovarian = tested on: SK-OV-3 ovarian
# NCI/ADR-RES ovarian = tested on: NCI/ADR-RES ovarian
# RPMI-8226 leukemia = tested on: RPMI-8226 leukemia
# SW-620 colon = tested on: SW-620 colon
# A498 renal = tested on: A498 renal
# SK-MEL-28 melanoma = tested on: SK-MEL-28 melanoma
# SK-MEL-2 melanoma = tested on: SK-MEL-2 melanoma
# BT-549 breast = tested on: BT-549 breast
# CAKI-1 renal = tested on: CAKI-1 renal
# HOP-62 NSCLC = tested on: HOP-62 NSCLC
# DU-145 prostate = tested on: DU-145 prostate
# SNB-75 CNS = tested on: SNB-75 CNS
# HCT-15 colon = tested on: HCT-15 colon
# KM12 colon = tested on: KM12 colon
# UACC-62 melanoma = tested on: UACC-62 melanoma
# SNB-19 CNS = tested on: SNB-19 CNS
# HCC-2998 colon = tested on: HCC-2998 colon
# SF-268 CNS = tested on: SF-268 CNS
# 786-0 renal = tested on: 786-0 renal
# IGROV1 ovarian = tested on: IGROV1 ovarian
# UO-31 renal = tested on: UO-31 renal
# UACC-257 melanoma = tested on: UACC-257 melanoma
# T-47D breast = tested on: T-47D breast
# PC-3 prostate = tested on: PC-3 prostate
# NCI-H522 lung = tested on: NCI-H522 lung
# NCI-H226 lung = tested on: NCI-H226 lung
# MALME-3M melanoma = tested on: MALME-3M melanoma
# MCF7 breast = tested on: MCF7 breast
# OVCAR-5 ovarian = tested on: OVCAR-5 ovarian
# SF-539 CNS = tested on: SF-539 CNS
# M14 melanoma = tested on: M14 melanoma
# NCI-H460 lung = tested on: NCI-H460 lung
# MDA-MB-435 = tested on: MDA-MB-435
# MDA-MB-231 breast = tested on: MDA-MB-231 breast
# MOLT-4 leukemia = tested on: MOLT-4 leukemia
# OVCAR-4 ovarian = tested on: OVCAR-4 ovarian
# HT29 colon = tested on: HT29 colon
# HOP-92 NSCLC = tested on: HOP-92 NSCLC
# U251 CNS = tested on: U251 CNS
# TK-10 renal = tested on: TK-10 renal
# LOX IMVI melanoma = tested on: LOX IMVI melanoma
# NCI-H23 lung = tested on: NCI-H23 lung
# SR leukemia = tested on: SR leukemia
# CCRF-CEM leukemia = tested on: CCRF-CEM leukemia
# RXF 393 renal = tested on: RXF 393 renal
# SF-295 CNS = tested on: SF-295 CNS
# A549 NSCLC = tested on: A549 NSCLC
smiles,measurement,setting,value
Cn1cc(C2=C(c3cn(CCSC(=N)N)c4ccccc34)C(=O)NC2=O)c2ccccc21,GI50,OVCAR-8 ovarian,3.95 µM
same,TGI,OVCAR-8 ovarian,8.91 µM
same,GI50,SK-MEL-5 melanoma,3.83 µM
same,TGI,SK-MEL-5 melanoma,7.43 µM
same,GI50,OVCAR-3 ovarian,3.37 µM
same,TGI,OVCAR-3 ovarian,6.74 µM
same,GI50,K-562 leukemia,1.87 µM
same,TGI,K-562 leukemia,6.1 µM
same,GI50,SN12C renal,2.8 µM
same,TGI,SN12C renal,6.37 µM
same,GI50,HL-60(TB) leukemia,4.65 µM
same,TGI,HL-60(TB) leukemia,10 µM
same,GI50,ACHN renal,3.81 µM
same,TGI,ACHN renal,7.74 µM
same,GI50,COLO 205 colon,1.13 µM
same,TGI,COLO 205 colon,4.52 µM
same,GI50,HCT-116 colon,1.45 µM
same,TGI,HCT-116 colon,5.77 µM
same,GI50,HS 578T breast,3.24 µM
same,TGI,HS 578T breast,10.4 µM
same,GI50,SK-OV-3 ovarian,2.79 µM
same,TGI,SK-OV-3 ovarian,6.56 µM
same,GI50,NCI/ADR-RES ovarian,13.2 µM
same,TGI,NCI/ADR-RES ovarian,25 µM
same,GI50,RPMI-8226 leukemia,4.18 µM
same,TGI,RPMI-8226 leukemia,10.1 µM
same,GI50,SW-620 colon,3.25 µM
same,TGI,SW-620 colon,7.05 µM
same,GI50,A498 renal,4.22 µM
same,TGI,A498 renal,8.95 µM
same,GI50,SK-MEL-28 melanoma,3.53 µM
same,TGI,SK-MEL-28 melanoma,7.06 µM
same,GI50,SK-MEL-2 melanoma,2.79 µM
same,TGI,SK-MEL-2 melanoma,6.22 µM
same,GI50,BT-549 breast,4.11 µM
same,TGI,BT-549 breast,8.31 µM
same,GI50,CAKI-1 renal,4.47 µM
same,TGI,CAKI-1 renal,9.25 µM
same,GI50,HOP-62 NSCLC,3.81 µM
same,TGI,HOP-62 NSCLC,7.98 µM
same,GI50,DU-145 prostate,3.94 µM
same,TGI,DU-145 prostate,7.81 µM
same,GI50,SNB-75 CNS,1.49 µM
same,TGI,SNB-75 CNS,5.84 µM
same,GI50,HCT-15 colon,5.21 µM
same,TGI,HCT-15 colon,11.9 µM
same,GI50,KM12 colon,3.13 µM
same,TGI,KM12 colon,6.57 µM
same,GI50,UACC-62 melanoma,3.94 µM
same,TGI,UACC-62 melanoma,7.43 µM
same,GI50,SNB-19 CNS,4.74 µM
same,TGI,SNB-19 CNS,10.3 µM
same,GI50,HCC-2998 colon,4.13 µM
same,TGI,HCC-2998 colon,8.07 µM
same,GI50,SF-268 CNS,3.91 µM
same,TGI,SF-268 CNS,8.18 µM
same,GI50,786-0 renal,4.29 µM
same,TGI,786-0 renal,10.7 µM
same,GI50,IGROV1 ovarian,4.92 µM
same,TGI,IGROV1 ovarian,9.46 µM
same,GI50,UO-31 renal,3.63 µM
same,TGI,UO-31 renal,7.71 µM
same,GI50,UACC-257 melanoma,3.85 µM
same,TGI,UACC-257 melanoma,7.79 µM
same,GI50,T-47D breast,3.24 µM
same,TGI,T-47D breast,8.25 µM
same,GI50,PC-3 prostate,3.51 µM
same,TGI,PC-3 prostate,8.4 µM
same,GI50,NCI-H522 lung,1.88 µM
same,TGI,NCI-H522 lung,5.64 µM
same,GI50,NCI-H226 lung,4.49 µM
same,TGI,NCI-H226 lung,12.2 µM
same,GI50,MALME-3M melanoma,4.08 µM
same,TGI,MALME-3M melanoma,7.83 µM
same,GI50,MCF7 breast,1.19 µM
same,TGI,MCF7 breast,4.55 µM
same,GI50,OVCAR-5 ovarian,6.25 µM
same,TGI,OVCAR-5 ovarian,14.1 µM
same,GI50,SF-539 CNS,3.63 µM
same,TGI,SF-539 CNS,7.62 µM
same,GI50,M14 melanoma,3.74 µM
same,TGI,M14 melanoma,8.01 µM
same,GI50,NCI-H460 lung,3.84 µM
same,TGI,NCI-H460 lung,7.69 µM
same,GI50,MDA-MB-435,1.73 µM
same,TGI,MDA-MB-435,5.25 µM
same,GI50,MDA-MB-231 breast,4.12 µM
same,TGI,MDA-MB-231 breast,8.29 µM
same,GI50,MOLT-4 leukemia,1.98 µM
same,TGI,MOLT-4 leukemia,7.95 µM
same,GI50,OVCAR-4 ovarian,3.88 µM
same,TGI,OVCAR-4 ovarian,8.96 µM
same,GI50,HT29 colon,1.31 µM
same,TGI,HT29 colon,5.28 µM
same,GI50,HOP-92 NSCLC,2.38 µM
same,TGI,HOP-92 NSCLC,8.78 µM
same,GI50,U251 CNS,2.91 µM
same,TGI,U251 CNS,6.32 µM
same,GI50,TK-10 renal,3.15 µM
same,TGI,TK-10 renal,6.54 µM
same,GI50,LOX IMVI melanoma,3.02 µM
same,TGI,LOX IMVI melanoma,6.52 µM
same,GI50,NCI-H23 lung,3.53 µM
same,TGI,NCI-H23 lung,7.92 µM
same,GI50,SR leukemia,1.23 µM
same,TGI,SR leukemia,6.87 µM
same,GI50,CCRF-CEM leukemia,1.38 µM
same,TGI,CCRF-CEM leukemia,12.7 µM
same,GI50,RXF 393 renal,3.56 µM
same,TGI,RXF 393 renal,8.23 µM
same,GI50,SF-295 CNS,3.47 µM
same,TGI,SF-295 CNS,7.39 µM
same,GI50,A549 NSCLC,3.94 µM
same,TGI,A549 NSCLC,8.18 µM
